From article PMC5760531, “Action Potential Recording and Pro-arrhythmia Risk Analysis in Human Ventricular Trabeculae” (Frontiers in Physiology, 2018)
“And” between values parts separate entries of the source, which are not always exact repeats. Equal entries are not always repeated.

Legend:
[1] = tested on: human ventricular trabeculae; experiment: Action potential recording and pro-arrhythmic score analysis in human ventricular trabeculae (hVT);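 further: sharp microelectrode action potential recordings at 37°C in Tyrode-perfused trabeculae, 4 cumulative concentrations each applied 31 min, values averaged over last 30 APs, vehicle 0.1% DMSO as control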
Procedure: Briefly, the human heart was transferred into a dissection vessel containing a cold (4°C), fresh proprietary dissection solution. The heart was maintained completely submerged in dissection solution. Ventricular trabeculae were dissected and transferred to the recording chamber.
Briefly, a single tissue was mounted into the experimental chamber filled with oxygenated Tyrode's external solution. The temperature of the solution was maintained at 37°C with flow rate at 5 mL per minute. The tissue was allowed to equilibrate for 30–60 min with stimulation (3 V, 3 ms) at a frequency of 1.0 Hz. High impedance borosilicate microelectrodes were prepared with a tip resistance of 10–20 MΩ once filled with 3 M KCl. Upon tissue impalement, the membrane potential was allowed to stabilize (typically, around −85 mV). Tissues with resting membrane potentials more positive than −75 mV were rejected. Bipolar stimulation at 1.5x threshold was applied and recordings were performed in continuous mode with sampling at 20 kHz using ADInstruments and LabChart Software.
Interruption of perfusion/oxygenation; (2). Absence of Aps following stimulation at baseline; (3). Time frame of drug exposure not respected; (4). Unstable response to stimulation at baseline; (5). Resting membrane potential (RMP) > −75 mV; 7). Maximal amplitude of AP (AMAX) <70 mV; 8). AP duration at 90% repolarization (APD90) <200 ms or >450 ms.
Experimental Procedure: Each test article was evaluated at 4 concentrations in 4 ventricular trabeculae derived from a minimum of 2 donor hearts. Testing concentrations were chosen based upon human free ETPC, aiming to cover 1–100-fold of human free ETPC. […] Briefly, following stabilization of each tissue, APs were collected and assessed for 31 min in vehicle control solution (Tyrode with 0.1% DMSO) at stimulation frequencies of 1 Hz for 25 min, 2 Hz for 3 min and then 1 Hz for 3 min. Following this vehicle control period, 4 concentrations of a test compound were applied sequentially and cumulatively. Each concentration was applied for 31 min with the same stimulation sequence as in vehicle controls.
For each frequency tested, the last 30 APs acquired at the end of the period were averaged for vehicle controls and for each test article concentration. Analysis at 1 Hz included only the last 30 APs of the initial 25-min incubation period. The following AP parameters and pro-arrhythmia variables were analyzed offline upon the completion of recordings:
• RMP (mV) • AMAX (mV) • AP duration at percent repolarization (APD20, APD30, APD50, APD60, APD90) (ms) • Short term variability analysis of AP duration (STV): Beat-to-beat variability of repolarization was quantified as STV from APD90 Poincare plots over a period of 30 sec.
Compound effects were quantified relative to the data collected during the vehicle control period (see Figure 1). […] Additionally, based on AnaBios historical data, threshold values for changes over baseline control for AP instability, APD alternans, Maximum APD dispersion and ERP (APD) were based upon an effect level of 10%. When applicable, differences were tested for statistical significance using the unpaired Student's t-test. A value of P < 0.05 was considered significant.
AP parameters and pro-arrhythmia variables were combined into a meaningful, single score to assess the pro-arrhythmic risk of a compound at each concentration tested. The pro-arrhythmic potential of compounds at 1 or 2 Hz was determined by assigning a weighted scale to each variable (Table 1).

[2] = tested on: human ventricular trabeculae; set-up: method as in Page et al., 2016; settings: 0.1 uM; ref Page et al., 2016; cited from earlier work
[3] = human free (unbound) effective therapeutic plasma concentration used to calculate multiples; cited from earlier work
hERG = settings: ref Rampe et al., 1998; Qu and Vargas, 2015; cited from earlier work
[4] = 1Hz, c1-c4: 1.5-, 5-, 15-, 150-FOLD free ETPC (0.002µM)
[5] = 2Hz, c1-c4: 1.5-, 5-, 15-, 150-FOLD free ETPC (0.002µM)
[6] = average raw data, 1Hz, c2-c5: 1.5-, 5-, 15-, 150-FOLD free ETPC (0.002µM)
[7] = average raw data, 2Hz, c2-c5: 1.5-, 5-, 15-, 150-FOLD free ETPC (0.002µM)
[8] = 1Hz, 1.5-FOLD free ETPC (0.002µM)
[9] = 1Hz, 15-FOLD free ETPC (0.002µM)
[10] = 1Hz, 150-FOLD free ETPC (0.002µM)
[11] = 1Hz, 1500-FOLD free ETPC (0.002µM)
[12] = 2Hz, 1.5-FOLD free ETPC (0.002µM)
[13] = 2Hz, 15-FOLD free ETPC (0.002µM)
[14] = 2Hz, 150-FOLD free ETPC (0.002µM)
[15] = 2Hz, 1500-FOLD free ETPC (0.002µM)
[16] = average raw data, 1Hz, c2-c5: 1.5-, 15-, 150-, 1500-FOLD free ETPC (0.002µM)

CN(CCOc1ccc(NS(C)(=O)=O)cc1)CCc1ccc(NS(C)(=O)=O)cc1 [DOFETILIDE, Dofetilide]
EAD ([1]; 0.003, 0.01, 0.03, and 0.3 μM, total of 4 trabeculae): without any EAD | Beat Escape incidence [1, 4]: 0% | EADs incidence [1, 4]: 0% | Refractoriness Escape incidence [1, 4]: 0% | EADs incidence [1, 5]: 0% | Refractoriness Escape incidence [1, 5]: 0% | AMAX [1, 6]: 106 mV and 107 mV | APD90 [1, 6]: 274 ms and 303 ms and 385 ms and 510 ms | Beat Escape [1, 6]: 0 | EADs [1, 6]: 0 | ERP [1, 6]: 0.43 and 0.47 and 0.52 and 0.59 | Refractoriness Escape [1, 6]: 0 | AMAX [1, 7]: 102 mV and 100 mV and 101 mV | APD90 [1, 7]: 216 ms and 251 ms and 296 ms and 411 ms | EADs [1, 7]: 0 | ERP [1, 7]: 0.44 and 0.49 and 0.52 and 0.56 | Refractoriness Escape [1, 7]: 0 | APD90 prolongation [2]: ~ 100%

O=C1NCCN1CCN1CCC(c2cn(-c3ccc(F)cc3)c3ccc(Cl)cc23)CC1 [SERTINDOLE, Sertindole]
Free ETPC [3]: 0.002 µM | AMAX percentage change compared to vehicle control [1, 8]: 5% | APD30 percentage change compared to vehicle control [1, 8]: 6% | APD50 percentage change compared to vehicle control [1, 8]: 6% | APD90 percentage change compared to vehicle control [1, 8]: 5% | Alternans percentage change compared to vehicle control [1, 8]: 54% | Beat Escape percentage change compared to vehicle control [1, 8]: 0% | EADs percentage change compared to vehicle control [1, 8]: 0% | ERP percentage change compared to vehicle control [1, 8]: 1% | Max Dispersion percentage change compared to vehicle control [1, 8]: -15% | RMP percentage change compared to vehicle control [1, 8]: 1% | Refractoriness Escape percentage change compared to vehicle control [1, 8]: 0% | STV percentage change compared to vehicle control [1, 8]: 31% | Triangulation percentage change compared to vehicle control [1, 8]: 4% | AMAX percentage change compared to vehicle control [1, 9]: 5% | APD30 percentage change compared to vehicle control [1, 9]: -1% | APD50 percentage change compared to vehicle control [1, 9]: 0% | APD90 percentage change compared to vehicle control [1, 9]: 0% | Alternans percentage change compared to vehicle control [1, 9]: -5% | Beat Escape percentage change compared to vehicle control [1, 9]: 0% | EADs percentage change compared to vehicle control [1, 9]: 0% | ERP percentage change compared to vehicle control [1, 9]: 3% | Max Dispersion percentage change compared to vehicle control [1, 9]: -35% | RMP percentage change compared to vehicle control [1, 9]: 3% | Refractoriness Escape percentage change compared to vehicle control [1, 9]: 0% | STV percentage change compared to vehicle control [1, 9]: 0% | Triangulation percentage change compared to vehicle control [1, 9]: 3% | AMAX percentage change compared to vehicle control [1, 10]: 5% | APD30 percentage change compared to vehicle control [1, 10]: 4% | APD50 percentage change compared to vehicle control [1, 10]: 6% | APD90 percentage change compared to vehicle control [1, 10]: 7% | Alternans percentage change compared to vehicle control [1, 10]: 31% | Beat Escape percentage change compared to vehicle control [1, 10]: 0% | EADs percentage change compared to vehicle control [1, 10]: 0% | ERP percentage change compared to vehicle control [1, 10]: 7% | Max Dispersion percentage change compared to vehicle control [1, 10]: -3% | RMP percentage change compared to vehicle control [1, 10]: 2% | Refractoriness Escape percentage change compared to vehicle control [1, 10]: 0% | STV percentage change compared to vehicle control [1, 10]: 23% | Triangulation percentage change compared to vehicle control [1, 10]: 12% | AMAX percentage change compared to vehicle control [1, 11]: 4% | APD30 percentage change compared to vehicle control [1, 11]: 1% | APD50 percentage change compared to vehicle control [1, 11]: 6% | APD90 percentage change compared to vehicle control [1, 11]: 8% | Alternans percentage change compared to vehicle control [1, 11]: -12% | Beat Escape percentage change compared to vehicle control [1, 11]: 0% | EADs percentage change compared to vehicle control [1, 11]: 0% | ERP percentage change compared to vehicle control [1, 11]: 13% | Max Dispersion percentage change compared to vehicle control [1, 11]: -30% | RMP percentage change compared to vehicle control [1, 11]: 3% | Refractoriness Escape percentage change compared to vehicle control [1, 11]: 0% | STV percentage change compared to vehicle control [1, 11]: -24% | Triangulation percentage change compared to vehicle control [1, 11]: 19% | AMAX [1, 12]: 109 | AMAX percentage change compared to vehicle control [1, 12]: 3% | APD30 [1, 12]: 104 | APD30 percentage change compared to vehicle control [1, 12]: -1% | APD50 [1, 12]: 139 | APD50 percentage change compared to vehicle control [1, 12]: 0% | APD90 [1, 12]: 197 | APD90 percentage change compared to vehicle control [1, 12]: 0% | Alternans [1, 12]: 1.61 | Alternans percentage change compared to vehicle control [1, 12]: 93% | Beat Escape [1, 12]: 0 | Beat Escape percentage change compared to vehicle control [1, 12]: 0% | EADs [1, 12]: 0 | EADs percentage change compared to vehicle control [1, 12]: 0% | ERP [1, 12]: 0.43 | ERP percentage change compared to vehicle control [1, 12]: 2% | Max Dispersion [1, 12]: 4.87 | Max Dispersion percentage change compared to vehicle control [1, 12]: 7% | RMP [1, 12]: -85 | RMP percentage change compared to vehicle control [1, 12]: 1% | Refractoriness Escape [1, 12]: 0 | Refractoriness Escape percentage change compared to vehicle control [1, 12]: 0% | STV [1, 12]: 1.20 | Triangulation [1, 12]: 93 | Triangulation percentage change compared to vehicle control [1, 12]: 1% | AMAX [1, 13]: 110 | AMAX percentage change compared to vehicle control [1, 13]: 4% | APD30 [1, 13]: 104 | APD30 percentage change compared to vehicle control [1, 13]: -1% | APD50 [1, 13]: 139 | APD50 percentage change compared to vehicle control [1, 13]: 0% | APD90 [1, 13]: 199 | APD90 percentage change compared to vehicle control [1, 13]: 1% | Alternans [1, 13]: 0.69 | Alternans percentage change compared to vehicle control [1, 13]: -17% | Beat Escape [1, 13]: 0 | Beat Escape percentage change compared to vehicle control [1, 13]: 0% | EADs [1, 13]: 0 | EADs percentage change compared to vehicle control [1, 13]: 0% | ERP [1, 13]: 0.44 | ERP percentage change compared to vehicle control [1, 13]: 4% | Max Dispersion [1, 13]: 3.50 | Max Dispersion percentage change compared to vehicle control [1, 13]: -23% | RMP [1, 13]: -87 | RMP percentage change compared to vehicle control [1, 13]: 3% | Refractoriness Escape [1, 13]: 0 | Refractoriness Escape percentage change compared to vehicle control [1, 13]: 0% | STV [1, 13]: 0.48 | Triangulation [1, 13]: 95 | Triangulation percentage change compared to vehicle control [1, 13]: 3% | AMAX [1, 14]: 110 | AMAX percentage change compared to vehicle control [1, 14]: 5% | APD30 [1, 14]: 112 | APD30 percentage change compared to vehicle control [1, 14]: 6% | APD50 [1, 14]: 150 | APD50 percentage change compared to vehicle control [1, 14]: 8% | APD90 [1, 14]: 214 | APD90 percentage change compared to vehicle control [1, 14]: 9% | Alternans percentage change compared to vehicle control [1, 14]: 30% | Beat Escape [1, 14]: 0 | Beat Escape percentage change compared to vehicle control [1, 14]: 0% | EADs [1, 14]: 0 | EADs percentage change compared to vehicle control [1, 14]: 0% | ERP [1, 14]: 0.45 | ERP percentage change compared to vehicle control [1, 14]: 7% | Max Dispersion [1, 14]: 3.78 | Max Dispersion percentage change compared to vehicle control [1, 14]: -17% | RMP [1, 14]: -87 | RMP percentage change compared to vehicle control [1, 14]: 3% | Refractoriness Escape [1, 14]: 0 | Refractoriness Escape percentage change compared to vehicle control [1, 14]: 0% | STV [1, 14]: 0.78 | Triangulation [1, 14]: 103 | Triangulation percentage change compared to vehicle control [1, 14]: 12% | AMAX [1, 15]: 110 | AMAX percentage change compared to vehicle control [1, 15]: 4% | APD30 [1, 15]: 107 | APD30 percentage change compared to vehicle control [1, 15]: 1% | APD50 [1, 15]: 150 | APD50 percentage change compared to vehicle control [1, 15]: 8% | APD90 [1, 15]: 221 | APD90 percentage change compared to vehicle control [1, 15]: 12% | Alternans [1, 15]: 0.59 | Alternans percentage change compared to vehicle control [1, 15]: -29% | Beat Escape [1, 15]: 0 | Beat Escape percentage change compared to vehicle control [1, 15]: 0% | EADs [1, 15]: 0 | EADs percentage change compared to vehicle control [1, 15]: 0% | ERP [1, 15]: 0.48 | ERP percentage change compared to vehicle control [1, 15]: 13% | Max Dispersion [1, 15]: 2.80 | Max Dispersion percentage change compared to vehicle control [1, 15]: -39% | RMP [1, 15]: -87 | RMP percentage change compared to vehicle control [1, 15]: 3% | Refractoriness Escape [1, 15]: 0 | Refractoriness Escape percentage change compared to vehicle control [1, 15]: 0% | STV [1, 15]: 0.42 | Triangulation [1, 15]: 114 | Triangulation percentage change compared to vehicle control [1, 15]: 23% | TdP identification by pro-arrhythmic score ([1]; at 10-fold human free ETPC, score >10 unsafe, <10 safe): TdP negative | AMAX [1, 16]: 112 mV and 111 mV | APD30 [1, 16]: 159 ms and 150 ms and 158 ms and 153 ms | APD50 [1, 16]: 205 ms and 195 ms and 207 ms and 206 ms | APD90 [1, 16]: 272 ms and 261 ms and 279 ms and 282 ms | Alternans [1, 16]: 0.83 and 0.51 and 0.71 and 0.47 | Beat Escape [1, 16]: 0 | EADs [1, 16]: 0 | ERP [1, 16]: 0.41 and 0.42 and 0.44 and 0.46 | Max Dispersion [1, 16]: 3.13 and 2.38 and 3.55 and 2.58 | Refractoriness Escape [1, 16]: 0 | STV [1, 16]: 0.54 and 0.39 and 0.47 and 0.31 | Triangulation [1, 16]: 113 and 111 and 121 and 129 | hERG IC50 (hERG): sub-micromolar
